Results: ChEMBL document CHEMBL4477234, “Potent Suppressive Effects of 1-Piperidinylimidazole Based Novel P2X7 Receptor Antagonists on Cancer Cell Migration and Invasion” (J Med Chem, 2016)
Activity calls are given as the source filed them. The calls are words filed in the database; no cut-off is given here.

What was measured:
MDA-MB-231 [1] = assay: Cytotoxicity against human MDA-MB-231 cells assessed as reduction in cell viability at 10 uM measured after 48 hrs by WST-1 cell viability assay; format: cell-based; settings: mda-mb-231, 48 h
P2X purinoceptor 7 [2] = molecular target: T1, P2X purinoceptor 7 (Homo sapiens, UniProt Q99572); assay: Antagonist activity at human P2X7 receptor expressed in HEK293 cells assessed as inhibition of BzATP-induced EtBr uptake measured after 2 hrs by fluorescence analysis; format: cell-based
T1 sequence (Q99572 whole entry): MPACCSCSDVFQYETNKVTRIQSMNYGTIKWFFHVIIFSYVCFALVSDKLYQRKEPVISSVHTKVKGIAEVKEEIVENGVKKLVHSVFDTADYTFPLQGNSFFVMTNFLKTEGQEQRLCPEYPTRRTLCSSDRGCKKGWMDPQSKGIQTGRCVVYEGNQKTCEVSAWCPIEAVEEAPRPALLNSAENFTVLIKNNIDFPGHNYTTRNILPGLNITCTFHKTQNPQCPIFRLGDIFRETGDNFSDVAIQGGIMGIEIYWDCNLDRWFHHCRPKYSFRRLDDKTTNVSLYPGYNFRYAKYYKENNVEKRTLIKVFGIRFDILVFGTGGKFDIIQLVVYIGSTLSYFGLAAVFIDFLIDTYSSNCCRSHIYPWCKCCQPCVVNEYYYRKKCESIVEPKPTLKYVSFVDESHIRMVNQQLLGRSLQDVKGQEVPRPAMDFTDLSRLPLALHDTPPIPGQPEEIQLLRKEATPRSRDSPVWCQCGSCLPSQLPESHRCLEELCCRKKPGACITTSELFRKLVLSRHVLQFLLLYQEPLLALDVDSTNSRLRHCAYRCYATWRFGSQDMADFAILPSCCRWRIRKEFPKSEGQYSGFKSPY

[3] = Toxicity in zebrafish assessed as induction of teratogenic developmental toxicity at 10 uM; design: species or system Danio rerio; settings: in vivo
Homo sapiens = species: Homo sapiens; assay: Selectivity ratio, ratio of IC50 for human P2X3 receptor expressed in human 1321N1 cells to human P2X7 receptor expressed in HEK293 cells; format: cell-based
P2X purinoceptor 7 [4] = molecular target: T1, P2X purinoceptor 7; assay: Antagonist activity at human P2X7 receptor in LPS/IFN-gamma-differentiated human THP-1 cells assessed as suppression of BzATP-stimulated IL-1beta release per-incubated for 30 mins before BzATP addition and measured after 30 mins by ELISA; format: cell-based
[5] = molecular target: T2, P2X purinoceptor 4 (Homo sapiens) (UniProt Q99571); assay: Antagonist activity at human P2X4 receptor expressed in human 1321N1 cells assessed as inhibition of ATP-induced calcium influx at 1 uM preincubated for 30 mins prior to ATP-stimulation by calcium influx assay; format: cell-based
T2 sequence (whole entry): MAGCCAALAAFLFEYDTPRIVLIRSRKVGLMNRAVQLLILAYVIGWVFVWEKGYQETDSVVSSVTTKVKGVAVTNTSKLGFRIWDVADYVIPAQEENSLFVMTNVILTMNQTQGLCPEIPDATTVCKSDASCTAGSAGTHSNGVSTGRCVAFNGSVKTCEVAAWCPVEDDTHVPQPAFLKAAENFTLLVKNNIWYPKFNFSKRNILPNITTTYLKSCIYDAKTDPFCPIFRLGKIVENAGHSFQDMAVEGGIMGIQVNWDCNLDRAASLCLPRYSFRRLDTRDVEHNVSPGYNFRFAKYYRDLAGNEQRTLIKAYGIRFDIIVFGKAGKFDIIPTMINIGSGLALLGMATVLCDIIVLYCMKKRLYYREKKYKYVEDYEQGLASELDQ

MDA-MB-231 [6] = assay: Antimigratory activity against human MDA-MB-231 cells xenografted in zebrafish assessed as inhibition of cell dissemination and invasion at 10 uM measured after 4 days by fluorescence microscopic analysis relative to control; format: functional, cell-based
[7] = molecular target: T3, P2X purinoceptor 2 (Homo sapiens) (UniProt Q9UBL9); assay: Antagonist activity at human P2X2 receptor expressed in human 1321N1 cells assessed as inhibition of ATP-induced calcium influx at 1 uM preincubated for 30 mins prior to ATP-stimulation by calcium influx assay; format: cell-based
T3 sequence (whole entry): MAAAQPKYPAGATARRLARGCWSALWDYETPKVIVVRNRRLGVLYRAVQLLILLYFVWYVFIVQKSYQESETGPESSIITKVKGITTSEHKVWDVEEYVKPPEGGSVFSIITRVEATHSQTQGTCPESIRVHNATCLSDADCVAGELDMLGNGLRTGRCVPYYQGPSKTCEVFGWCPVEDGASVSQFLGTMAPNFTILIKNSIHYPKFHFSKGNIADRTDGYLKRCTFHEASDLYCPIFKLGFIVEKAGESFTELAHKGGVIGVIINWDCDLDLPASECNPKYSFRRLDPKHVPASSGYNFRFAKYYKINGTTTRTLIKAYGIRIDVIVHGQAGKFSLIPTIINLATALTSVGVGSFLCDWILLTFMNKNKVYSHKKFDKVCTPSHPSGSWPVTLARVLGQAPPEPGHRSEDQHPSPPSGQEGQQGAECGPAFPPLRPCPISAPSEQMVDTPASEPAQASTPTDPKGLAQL

P2X purinoceptor 3 [8] = molecular target: T4, P2X purinoceptor 3 (Homo sapiens, UniProt P56373); assay: Antagonist activity at human P2X3 receptor expressed in human 1321N1 cells assessed as inhibition of ATP-induced calcium influx preincubated for 30 mins prior to ATP-stimulation by calcium influx assay; format: cell-based
T4 sequence (P56373 whole entry): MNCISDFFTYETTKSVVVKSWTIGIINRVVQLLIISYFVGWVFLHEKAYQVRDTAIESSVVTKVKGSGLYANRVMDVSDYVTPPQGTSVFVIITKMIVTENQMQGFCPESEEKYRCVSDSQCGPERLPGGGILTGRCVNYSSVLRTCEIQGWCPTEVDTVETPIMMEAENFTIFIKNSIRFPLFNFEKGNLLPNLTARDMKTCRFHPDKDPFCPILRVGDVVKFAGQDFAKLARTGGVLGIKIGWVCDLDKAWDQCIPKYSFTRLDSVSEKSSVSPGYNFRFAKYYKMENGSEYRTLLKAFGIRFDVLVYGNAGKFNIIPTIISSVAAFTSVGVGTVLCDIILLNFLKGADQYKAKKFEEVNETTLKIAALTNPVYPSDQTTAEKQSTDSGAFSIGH

[9] = molecular target: T5, P2X purinoceptor 1 (Homo sapiens) (UniProt P51575); assay: Antagonist activity at human P2X1 receptor expressed in human 1321N1 cells assessed as inhibition of ATP-induced calcium influx at 1 uM preincubated for 30 mins prior to ATP-stimulation by calcium influx assay; format: cell-based
T5 sequence (whole entry): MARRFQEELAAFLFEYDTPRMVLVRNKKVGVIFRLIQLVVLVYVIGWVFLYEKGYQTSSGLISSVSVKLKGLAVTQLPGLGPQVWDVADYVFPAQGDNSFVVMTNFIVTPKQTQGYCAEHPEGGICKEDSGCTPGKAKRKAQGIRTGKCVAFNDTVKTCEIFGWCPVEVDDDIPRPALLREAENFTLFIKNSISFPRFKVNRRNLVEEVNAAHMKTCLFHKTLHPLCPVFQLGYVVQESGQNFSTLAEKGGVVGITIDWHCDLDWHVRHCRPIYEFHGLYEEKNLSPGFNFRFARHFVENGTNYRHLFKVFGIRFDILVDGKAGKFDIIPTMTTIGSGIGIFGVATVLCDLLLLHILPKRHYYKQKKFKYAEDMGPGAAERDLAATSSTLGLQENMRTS

MDA-MB-231 [10] = assay: Antiinvasive activity against human MDA-MB-231 cells measured after 48 hrs by transwell invasion assay; format: functional, cell-based; settings: MDA-MB-231, 48 h
MDA-MB-231 [11] = assay: Cytotoxicity against human MDA-MB-231 cells assessed as reduction in cell viability at 2.5 to 10 uM measured after 48 hrs by WST-1 cell viability assay; format: cell-based; settings: mda-mb-231, 48 h
P2X purinoceptor 3 [12] = molecular target: T6, P2X purinoceptor 3 (Rattus norvegicus, UniProt P49654); assay: Antagonist activity at P2X3 receptor in Wistar rat DRG neurons assessed as inhibition of alpha/beta-meATP-induced currents preincubated for 5 mins prior to alpha/beta-meATP-stimulation measured at every sec for 5 mins by whole cell patch-clamp assay
T6 sequence (P49654 whole entry): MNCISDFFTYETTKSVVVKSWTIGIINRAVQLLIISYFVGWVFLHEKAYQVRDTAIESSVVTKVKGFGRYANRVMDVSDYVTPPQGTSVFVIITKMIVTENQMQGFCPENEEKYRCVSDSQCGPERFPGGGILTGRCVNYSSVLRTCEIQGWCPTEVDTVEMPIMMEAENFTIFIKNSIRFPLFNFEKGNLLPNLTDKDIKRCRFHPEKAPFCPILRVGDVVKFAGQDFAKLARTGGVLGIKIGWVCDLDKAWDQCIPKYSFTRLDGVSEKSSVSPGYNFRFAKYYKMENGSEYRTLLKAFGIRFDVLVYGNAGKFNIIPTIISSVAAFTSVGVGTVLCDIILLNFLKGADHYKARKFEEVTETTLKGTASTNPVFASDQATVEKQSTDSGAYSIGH

Row | Structure (SMILES) | Activity (MDA-MB-231 [1]) [%] | IC50 (P2X purinoceptor 7 [2]) [nM] | Activity [3] | Ratio IC50 (Homo sapiens) | IC50 (P2X purinoceptor 7 [4]) [nM] | inhibition [5] [%] | inhibition (MDA-MB-231 [6]) | inhibition [7] [%] | IC50 (P2X purinoceptor 3 [8]) [nM] | inhibition [9] [%] | IC50 (MDA-MB-231 [10]) [nM] | Activity (MDA-MB-231 [11]) | IC50 (P2X purinoceptor 3 [12]) [nM]
1 | CN(C)c1ccc(C(=O)N2CCC(n3cncc3-c3ccc(OS(=O)(=O)c4cccc5cnccc45)cc3)CC2)cc1 | 71 | 0.11 | Non-Toxic | 1000 to 7000 | 2.19 | 15 | Active | 11 | 800 | 26 | 2680 | – | –
2 | CN(C)c1ccc(C(=O)N2CCC(n3cncc3-c3ccc(OS(=O)(=O)c4cccc(C(=O)NC5CC5)c4)cc3)CC2)cc1 | – | 0.49 | Non-Toxic | 1000 to 7000 | 1.03 | 7 | Active | 7 | 910 | 22 | 3630 | Non-Toxic | –
3 | CN(C)c1ccc(C(=O)N2CCN(c3cc(=O)[nH]c(=O)n3Cc3ccc(OS(=O)(=O)c4cccc5cnccc45)cc3)CC2)cc1 | – | 1.53 | Non-Toxic | 1000 to 7000 | 1.33 | 6 | Active | 2 | 2660 | 23 | 2590 | Non-Toxic | –
4 | O=C(Nc1cc(C(=O)Nc2ccc(S(=O)(=O)O)cc2)cc(C(=O)Nc2ccc(S(=O)(=O)O)cc2)c1)Nc1cc(C(=O)Nc2ccc(S(=O)(=O)O)cc2)cc(C(=O)Nc2ccc(S(=O)(=O)O)cc2)c1 | – | – | – | – | – | – | – | – | 1580 | – | – | – | 527
5 | O=C1NC(=O)N(C2CCN(C(=O)c3ccc(Cl)c(C(F)(F)F)c3)CC2)C1Cc1ccc(OS(=O)(=O)c2cccc3cnccc23)cc1 (stereo not given) | – | – | – | – | 54 | 0 | – | 5 | 600 | 28 | – | – | –
